For data set [1], the species on record is Homo sapiens. The data set can be described thus: Inhibition of sodium channel (unknown origin) at 30 uM.
Data set [2] is described as follows: Effective half life in beagle dog at 1 mg/kg, iv by LC-MS/MS method. Particulars: in vivo, read-out: t1/2eff (converted). It is filed as ADME, organism-based, Canis lupus familiaris.
The nature of data set [3]: Effective half life in Sprague-Dawley rat at 2.5 mg/kg, iv by LC-MS/MS method. In kind it is ADME, organism-based. To be noted: in vivo, read-out: t1/2eff (converted).
The nature of data set [4]: Clearance in Sprague-Dawley rat at 2.5 mg/kg, iv by LC-MS/MS method. In kind it is ADME, organism-based. Particulars: in vivo.
Data set [5] can be described thus: Oral bioavailability in cynomolgus monkey at 2 mg/kg by LC-MS/MS method. It is filed as ADME, organism-based, Macaca fascicularis. Particulars: in vivo.
Data set [6] is described as follows: Clearance in beagle dog at 1 mg/kg, iv by LC-MS/MS method. To be noted: in vivo. It is filed as ADME, organism-based, Canis lupus familiaris.
In data set [7] the target is T1, PXR (Nuclear receptor subfamily 1 group I member 2) (Homo sapiens, UniProt O75469).
T1 sequence (O75469 whole entry): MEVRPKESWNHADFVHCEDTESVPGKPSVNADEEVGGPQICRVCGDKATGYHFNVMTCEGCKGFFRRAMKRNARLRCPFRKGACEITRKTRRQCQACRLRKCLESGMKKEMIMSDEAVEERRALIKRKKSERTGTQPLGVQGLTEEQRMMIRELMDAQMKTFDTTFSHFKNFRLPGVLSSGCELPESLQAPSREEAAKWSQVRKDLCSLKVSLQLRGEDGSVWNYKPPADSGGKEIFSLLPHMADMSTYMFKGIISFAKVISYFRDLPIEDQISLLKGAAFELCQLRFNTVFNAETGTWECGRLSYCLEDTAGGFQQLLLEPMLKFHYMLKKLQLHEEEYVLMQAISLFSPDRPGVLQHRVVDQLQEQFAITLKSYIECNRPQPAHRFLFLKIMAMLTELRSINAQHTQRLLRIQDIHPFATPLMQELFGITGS
The data set can be described thus: Activation of PXR (unknown origin) relative to rifampicin. Particulars: read-out: FC. It is filed as ADME.

Data set [8] in a line: Drug level in beagle dog at 2 mg/kg, po after 24 hrs by LC-MS/MS method. In kind it is ADME, organism-based, Canis lupus familiaris. Particulars: in vivo, read-out: Drug uptake.
Data set [9] can be described thus: Oral bioavailability in Sprague-Dawley rat at 5 mg/kg by LC-MS/MS method. In kind it is ADME, organism-based. Particulars: in vivo.
Data set [10] in a line: Clearance in cynomolgus monkey at 1 mg/kg, iv by LC-MS/MS method. In kind it is ADME, organism-based, Macaca fascicularis. To be noted: in vivo.
Data set [11] deals with Cytochrome P450 2D6 (Homo sapiens, UniProt P10635). Kind of data set: Inhibition of CYP2D6 (unknown origin). In kind it is ADME.
Cytochrome P450 2D6, sequence (P10635 whole entry): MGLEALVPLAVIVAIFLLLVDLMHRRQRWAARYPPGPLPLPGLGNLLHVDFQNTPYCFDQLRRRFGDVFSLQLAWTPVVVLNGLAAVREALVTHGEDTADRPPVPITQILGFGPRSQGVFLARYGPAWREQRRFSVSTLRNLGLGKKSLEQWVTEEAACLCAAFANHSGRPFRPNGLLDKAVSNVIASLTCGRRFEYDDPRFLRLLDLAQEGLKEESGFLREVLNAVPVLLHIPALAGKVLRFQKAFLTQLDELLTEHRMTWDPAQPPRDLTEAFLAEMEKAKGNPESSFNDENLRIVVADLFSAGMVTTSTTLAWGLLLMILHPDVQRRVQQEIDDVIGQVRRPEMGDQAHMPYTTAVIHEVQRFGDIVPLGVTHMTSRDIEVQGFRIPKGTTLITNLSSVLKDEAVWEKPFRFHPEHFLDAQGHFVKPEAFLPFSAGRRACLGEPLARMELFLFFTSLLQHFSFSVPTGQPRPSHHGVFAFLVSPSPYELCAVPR
Data set [12] can be described thus: Drug level in cynomolgus monkey at 2 mg/kg, po after 24 hrs by LC-MS/MS method. It is filed as ADME, organism-based, Macaca fascicularis. Particulars: in vivo, read-out: Drug uptake.
For data set [13], the target named is T2, Nuclear receptor subfamily 1 group I member 2 (Homo sapiens, UniProt O75469).
T2 sequence (O75469 whole entry): T1 sequence (O75469 whole entry)
Kind of data set: Activation of PXR in human hepatocytes assessed as induction of […] mRNA expression. It is filed as ADME, cell-based.

Data set [14] can be described thus: Drug level in Sprague-Dawley rat at 5 mg/kg, po after 24 hrs by LC-MS/MS method. In kind it is ADME, organism-based. To be noted: in vivo, read-out: Drug uptake.
For data set [15], the target named is Cytochrome P450 2C9 (Homo sapiens, UniProt P11712). Kind of data set: Inhibition of CYP2C9 (unknown origin). It is filed as ADME.
Cytochrome P450 2C9, sequence (P11712 whole entry): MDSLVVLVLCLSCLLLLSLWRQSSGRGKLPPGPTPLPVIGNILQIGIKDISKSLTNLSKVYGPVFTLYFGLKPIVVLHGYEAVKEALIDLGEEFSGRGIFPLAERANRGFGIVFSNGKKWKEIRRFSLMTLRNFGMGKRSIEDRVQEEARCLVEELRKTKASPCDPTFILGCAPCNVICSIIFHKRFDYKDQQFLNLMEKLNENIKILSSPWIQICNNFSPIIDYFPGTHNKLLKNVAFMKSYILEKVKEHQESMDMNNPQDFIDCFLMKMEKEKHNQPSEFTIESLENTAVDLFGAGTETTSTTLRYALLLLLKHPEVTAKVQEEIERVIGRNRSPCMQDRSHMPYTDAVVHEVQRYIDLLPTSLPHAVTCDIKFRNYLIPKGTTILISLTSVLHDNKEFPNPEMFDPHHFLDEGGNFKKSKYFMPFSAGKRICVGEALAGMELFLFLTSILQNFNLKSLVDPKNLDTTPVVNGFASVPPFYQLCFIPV
Data set [16] has as its system Canis familiaris. The data set can be described thus: AUC in beagle dog at 2 mg/kg, po by LC-MS/MS method. It is filed as ADME, organism-based, Canis lupus familiaris. Particulars: in vivo.
In data set [17] the target is Cytochrome P450 3A4 (Homo sapiens, UniProt P08684). The data set can be described thus: Inhibition of CYP3A4 (unknown origin). It is filed as ADME.
Cytochrome P450 3A4, sequence (P08684 whole entry): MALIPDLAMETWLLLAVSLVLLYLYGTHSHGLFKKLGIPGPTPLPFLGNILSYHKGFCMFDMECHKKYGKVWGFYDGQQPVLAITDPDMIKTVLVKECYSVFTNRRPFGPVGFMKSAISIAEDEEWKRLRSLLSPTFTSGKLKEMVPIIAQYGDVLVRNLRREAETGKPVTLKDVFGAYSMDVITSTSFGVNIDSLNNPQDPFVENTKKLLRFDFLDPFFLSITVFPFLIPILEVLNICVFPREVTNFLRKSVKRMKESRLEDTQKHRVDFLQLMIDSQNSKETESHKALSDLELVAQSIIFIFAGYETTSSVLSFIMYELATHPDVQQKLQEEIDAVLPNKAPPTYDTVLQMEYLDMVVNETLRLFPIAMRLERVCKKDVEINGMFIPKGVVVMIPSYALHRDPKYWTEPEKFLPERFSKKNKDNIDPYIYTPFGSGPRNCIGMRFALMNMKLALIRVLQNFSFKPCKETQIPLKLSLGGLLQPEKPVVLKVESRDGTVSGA
Data set [18] in a line: Effective half life in cynomolgus monkey at 1 mg/kg, iv by LC-MS/MS method. In kind it is ADME, organism-based, Macaca fascicularis. Particulars: in vivo, read-out: t1/2eff (converted).
Data set [19] in a line: Oral bioavailability in beagle dog at 2 mg/kg by LC-MS/MS method. It is filed as ADME, organism-based, Canis lupus familiaris. Particulars: in vivo.
Data set [20] has as its system Cynomolgus monkey. Kind of data set: AUC in cynomolgus monkey at 2 mg/kg, po by LC-MS/MS method. It is filed as ADME, organism-based, Macaca fascicularis. Particulars: in vivo.

Activity calls are given as the source filed them. The calls are words filed in the database; no cut-off is given here.

Consider `COC(=O)N[C@H](C(=O)N1CC(F)(F)C[C@H]1c1ncc(-c2ccc(-c3ccc4c(ccc5nc([C@@H]6C[Si](C)(C)CN6C(=O)[C@@H](NC(=O)OC)C(C)C)[nH]c54)c3)cc2)[nH]1)C(C)C`, for which the inhibition result in data set [1] is “inactive”.
Consider `COC(=O)N[C@H](C(=O)N1C[Si](C)(C)C[C@H]1c1ncc(-c2ccc(-c3ccc4c(ccc5nc([C@@H]6CC(F)(F)CN6C(=O)[C@@H](NC(=O)OC)C(C)C)[nH]c54)c3)cc2)[nH]1)C(C)C`, for which the half-life in data set [2] is 30 h; in [3] it was 10 h; in [18] it was 15 h. Further, the clearance in data set [4] was 7 mL/min/kg; in data set [6], 0.7 mL/min/kg; in data set [10] it was 0.7 mL/min/kg. For the same compound, the results for the bioavailability in data set [5], in data set [9] and in data set [19] were 45%, 64% and 47%, respectively. Also, the fold induction in data set [7] is 0.31. Further, the values for the concentration at 24 h in data set [8], in data set [12] and in [14] were 0.4 nM, 273 nM and 94 nM, respectively. In addition, the INH in [11], in [15] and in [17] was above 20 µM in each case. Moreover, the Activity in [13] came to 0.3 µM. Besides, the AUC in [16] stood at 32 uM.hr/ml; in data set [20], 26 uM.hr/ml.
